Laboratory results as given in patent publication US6835695B2, “Herbicidal Compositions” (Aventis CropScience GmbH, priority 2000, dated 2004).

Tested on: monocotyledonous and dicotyledonous weed plants
Experiment: Post-emergence greenhouse test, herbicidal action scored visually (weeds not split)
Assay type: in vivo
Details: with Genapol X 150, X 200, O 200 or Sapogenat T130, T 200, T 300, T 400, T 500 at e.g. 50, 100, 300, 500 g/ha, vs no surfactant or low-EO surfactant (Genapol O 060, Sapogenat T 040)
Procedure: Seeds or rhizome pieces of monocotyledonous and dicotyledonous weed plants were placed in sandy loamy soil in plastic pots, covered with soil and grown in the greenhouse under favorable growth conditions. Three weeks after sowing, the test plants were treated in the three-leaf stage. The compounds according to the invention which were formulated in the form of wettable powders or emulsion concentrates were sprayed onto the green plant parts at an application rate of 600 to 800 l of water/ha (converted), in various dosages. After the test plants had been left to stand in the greenhouse under optimum growth conditions for 3 to 4 weeks the effect of the preparations was scored visually by comparison with untreated controls.

## CCS(=O)(=O)c1ccc(C(=O)C2C(=O)CCCC2=O)c(Cl)c1C1=NOC(CC#N)C1 (stereo not shown) [Herbicide A4]
Herbicide 80 g/ha
  action of the herbicide when combined with a high-EO surfactant: increased markedly

## CS(=O)(=O)c1ccc(C(=O)C2C(=O)CCCC2=O)c([N+](=O)[O-])c1 [Herbicide A1]
Herbicide 200 g/ha
  action of the herbicide when combined with a high-EO surfactant: increased markedly

## CS(=O)(=O)c1ccc(C(=O)C2C(=O)CCCC2=O)c(Cl)c1COCC(F)(F)F [Herbicide A9]
Herbicide 80 g/ha
  action of the herbicide when combined with a high-EO surfactant: increased markedly

## CCOCC1CC(c2c(S(=O)(=O)CC)ccc(C(=O)C3C(=O)CCCC3=O)c2Cl)=NO1 (stereo not shown) [Herbicide A6]
Herbicide 80 g/ha
  action of the herbicide when combined with a high-EO surfactant: increased markedly
